Results reported in patent US20210078958A1, “QUINAZOLINE DERIVATIVE AND USE THEREOF” (MEDSHINE DISCOVERY INC., priority 2017, published 2021).

How the values were obtained:
OE21 cell = experiment: inhibitory activity on cell proliferation (Cell-Titer-Glo), OE21; type: cell-based; details: Homo sapiens, OE21, 72 h, incubation for 3 days
Excerpt: Purpose of the assay: to detect the inhibitory activity of the test compounds on cell proliferation.
Principle of the assay: the luciferase in a Cell-Titer-Glo reagent produces oxidized luciferin with luciferin, oxygen and ATP as reaction substrates, and releases energy in the form of light. Since the luciferase reaction requires ATP, the total amount of light generated by the reaction is proportional to the total amount of ATP that reflects cell viability.
Cell Titer-Glo cell viability assay kit with luminescence (Promega #G7573)
According to the schematic diagram of the cell seed plate, cells were seeded in a 384- or 96-well plate at a density of 1000 cells per well and 25 μL per well, and 25 μL of PBS was added to the wells near edge of the place where no cells were seeded.
(1) The stock solution of the compounds has a concentration of 10 mM, and the compounds were diluted with DMSO to an initial concentration of 4 mM. The compounds were added to the plate with stock solution of compounds, 9 μL per well.
(2) The compounds were diluted with an ECHO liquid workstation, where 125 nL of compounds were added to each well of the cell plate, 125 nL of DMSO was added to each of the cell well in columns 2 and 23, and 125 nL of DMSO was added to each PBS well in columns 1 and 24.
2.3 After addition of the compounds, the cell plate was centrifuged at 1000 rpm for 1 min, and then placed in a 37° C., 5% CO2 incubator for incubation for 3 days.
The cell plate was taken out from the incubator and equilibrated at room temperature for 30 minutes. 25 μL of Cell-Titer-Glo reagent was added to each well, shaken for one minute to allow well mixed, and centrifuged at 1000 rpm for 1 minute. After 10 minutes, the plate was read on PerkinElmer Envision, and the […] reading time was set to 0.2 second.

HER2 (ErbB2) = HER2 (ErbB2) (Homo sapiens, UniProt P04626); experiment: in vitro enzyme activity, HER2 (ErbB2); type: biochemical; details: human ErbB2, [γ-33P]ATP, poly(Glu, Tyr) substrate
Protocol: The purpose of this assay is to detect the in vitro inhibitory activity of compounds on HER1 (ErbB1), HER2 (ErbB2), and HER4 (ErbB4). The enzymes used in this assay are human ErbB1, ErbB2 and ErbB4. Eurofins Pharma Discovery Service provided the method for activity detection.
Steps and Method of the Assay (96-Well Plate):
A buffer solution of the test compounds in a dilution of 5-fold (5 μL), polypeptide substrate poly(Glu, Tyr) (4:1) (2.5 μL), ErbB (4-20 ng, 2.5 μL), MnCl2 (50 mM, 1.25 μL), dH2O (3.75 μL), and [γ-^33P]ATP (10 μL) were added, and incubated at 30° C. for 10 minutes. The reaction was terminated by adding 3% phosphoric acid. 10 μL of the sample was taken and transferred to Filtermate A. The filter disc was washed 3 times with 75 mM phosphoric acid and once with methanol. The filter disc was transferred to a sealed plastic bag and the scintillation mixture (4 mL) was added. The intensity of the emitted photon was detected by a scintillation luminescence counter. The CPM (times/min) of the enzyme sample was compared with the CPM of the internal control sample. The level of photon intensity reflected the degree of the tyrosine kinase activity.

[1] = Assay Example 7: pharmacokinetics in mice; type: in vivo; details: mouse, female BALB/c mice, plasma, dose not given; for Tmax / half-life: oral; for AUC(0-t) / Cmax: oral plasma exposure
Protocol: Purpose of the assay: this assay aims to investigate in vivo plasma pharmacokinetics of the example compounds disclosed herein and the reference compound in female BALB/c mice after the single intravenous injection and intragastric administration thereof.
Animals of the assay: female BALB/c nude mice, 7-9 weeks old, weighted 17-23 grams; supplier: shanghai sippr bk laboratory animals Ltd.
Sample collection: at each time point, a 0.03 mL blood sample was collected from the saphenous vein of the test animal by puncture, and the actual blood collection time was recorded. All blood samples were added into commercial EDTA-K2 anticoagulation tubes with a specification of 1.5 mL (the supplier was Jiangsu KANGJIAN Medical Apparatus Co., Ltd.). Within half an hour after the blood sample was collected, the blood sample was centrifuged at 3000 g at 4° C. for 10 minutes, and the supernatant plasma was drawn, quickly placed in dry ice, and stored in a refrigerator at −80° C. for LC-MS/MS analysis.
Data analysis: Plasma concentrations were processed using a non-compartmental model of WinNonlin™ Version6.3 (Pharsight, MountainView, Calif.) pharmacokinetic software, and pharmacokinetic parameters Cmax, Tmax, T1/2, and AUC0-last were calculated using a linear log trapezoid method.

CYP2D6 = biological target: T1, CYP2D6 (Homo sapiens, UniProt P10635); experiment: inhibition of CYP enzyme activity in human liver microsome, CYP2D6; type: in vitro ADME
T1 construct: in the assay of CYP enzyme activity in human liver microsome; from tissue; host or cells: human liver microsome
Excerpt: The results of the compounds disclosed herein and the reference compound Poziotinib in the assay of CYP enzyme activity in human liver microsome were shown in the following table (Table 8).

T1 sequence (P10635 whole entry): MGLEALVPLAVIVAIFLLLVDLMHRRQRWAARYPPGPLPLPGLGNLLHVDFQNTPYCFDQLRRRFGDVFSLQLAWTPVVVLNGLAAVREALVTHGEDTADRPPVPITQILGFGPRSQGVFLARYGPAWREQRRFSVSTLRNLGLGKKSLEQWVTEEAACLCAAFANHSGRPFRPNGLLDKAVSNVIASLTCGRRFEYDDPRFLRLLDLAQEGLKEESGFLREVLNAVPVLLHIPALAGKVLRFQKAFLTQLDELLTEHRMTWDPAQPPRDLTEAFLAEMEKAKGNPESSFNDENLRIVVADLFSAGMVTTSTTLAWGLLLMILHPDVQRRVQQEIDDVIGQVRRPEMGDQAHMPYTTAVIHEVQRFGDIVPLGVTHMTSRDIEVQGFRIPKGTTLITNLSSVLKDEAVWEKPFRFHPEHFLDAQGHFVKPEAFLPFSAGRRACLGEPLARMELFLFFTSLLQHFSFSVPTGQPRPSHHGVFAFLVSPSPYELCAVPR
Chain of HER2 (ErbB2) (P04626 23-1255): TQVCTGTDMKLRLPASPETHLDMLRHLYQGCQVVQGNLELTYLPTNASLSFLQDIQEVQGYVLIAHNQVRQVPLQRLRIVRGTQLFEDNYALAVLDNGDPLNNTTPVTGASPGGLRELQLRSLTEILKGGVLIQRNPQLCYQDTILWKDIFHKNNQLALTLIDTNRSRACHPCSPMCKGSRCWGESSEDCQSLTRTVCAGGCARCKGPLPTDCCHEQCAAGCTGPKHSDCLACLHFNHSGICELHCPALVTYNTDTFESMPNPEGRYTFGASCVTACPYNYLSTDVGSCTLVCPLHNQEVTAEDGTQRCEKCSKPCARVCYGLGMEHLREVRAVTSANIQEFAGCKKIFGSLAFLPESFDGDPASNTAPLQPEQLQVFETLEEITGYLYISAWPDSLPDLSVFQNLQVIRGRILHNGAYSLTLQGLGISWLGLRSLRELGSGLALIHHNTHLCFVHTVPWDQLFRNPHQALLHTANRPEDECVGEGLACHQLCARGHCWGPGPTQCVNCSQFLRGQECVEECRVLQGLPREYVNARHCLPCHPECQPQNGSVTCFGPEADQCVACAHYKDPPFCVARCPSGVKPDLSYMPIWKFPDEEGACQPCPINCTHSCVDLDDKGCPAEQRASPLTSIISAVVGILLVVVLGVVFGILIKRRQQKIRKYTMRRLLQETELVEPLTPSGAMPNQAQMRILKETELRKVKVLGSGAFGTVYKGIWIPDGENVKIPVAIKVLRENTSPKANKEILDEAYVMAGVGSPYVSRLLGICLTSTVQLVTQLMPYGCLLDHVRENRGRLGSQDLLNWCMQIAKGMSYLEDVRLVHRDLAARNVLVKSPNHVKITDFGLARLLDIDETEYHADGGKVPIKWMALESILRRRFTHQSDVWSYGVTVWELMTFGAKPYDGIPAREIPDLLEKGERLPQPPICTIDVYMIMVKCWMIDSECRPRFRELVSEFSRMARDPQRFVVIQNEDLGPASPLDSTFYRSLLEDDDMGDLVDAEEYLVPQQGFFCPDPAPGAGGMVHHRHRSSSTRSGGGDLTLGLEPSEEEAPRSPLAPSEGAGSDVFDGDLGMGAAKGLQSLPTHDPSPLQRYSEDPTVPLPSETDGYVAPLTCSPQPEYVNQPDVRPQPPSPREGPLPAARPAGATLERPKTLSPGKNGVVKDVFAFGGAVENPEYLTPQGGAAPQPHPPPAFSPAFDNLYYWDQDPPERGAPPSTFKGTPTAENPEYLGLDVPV

Structure (SMILES) | IC50 (OE21 cell) [nM] | IC50 (HER2 (ErbB2)) [nM] | Tmax [1] [h] | half-life [1] [min] | AUC(0-t) [1] [µM·h] | Cmax [1] [µM] | IC50 (CYP2D6) [µM] | activity on CYP2D6, times better than that of the reference compound (CYP2D6; versus Poziotinib) [times]
C=CC(=O)N1[C@@H]2CC[C@H]1C[C@H](Oc1cc3c(Nc4ccc(Cl)c(Cl)c4F)ncnc3cc1OC)C2 [Example 8] | 0.47 | 5.5 |  |  |  |  |  | 
C=CC(=O)N1CCC(Oc2cc3c(Nc4ccc(Cl)c(Cl)c4F)ncnc3cc2OC)CC1 [Poziotinib, reference compound] |  |  | 0.25 | 138 | 97.9 | 17.3 | 1 | 
C=CC(=O)N1[C@@H]2CC[C@H]1C[C@H](Nc1cc3c(Nc4ccc(Cl)c(Cl)c4F)ncnc3cc1OC)C2 [Example 38] | 0.52 | 5 | 2 | 192 | 122 | 10.6 | 6 | 6
